Where two headings read alike, the source gives them in different places. Non-standard residues stand in square brackets, D forms with d. Residues, ends and D or L forms follow the SMILES beside them. Aib = CC(C)(N)C(=O)O; Ahx = NCCCCCC(=O)O; βAla = NCCC(=O)O
Assays:
MDA-MB-231 [1] = assay: MTT cell viability, MDA-MB-231; type: cell-based, human; settings: for IC50: 5% FBS medium, 310 K, mean (standard deviation)
MDA-MB-231 tumour = assay: In vivo fluorescence imaging and tissue distribution; design: species or system mice; settings: Cy5-labelled peptides, n=2; for tumour accumulation (in vivo fluorescence imaging): 100 μl 50 μM, tail vein, MDA-MB-231 tumour-bearing mice
Procedure: Four-week-old nude mice were purchased from the Vital River (Beijing, China) and allowed to grow for further two weeks. Approximately 1×10^6 MDA-MB-231 cells were injected into the mammary fat pads of female mice in a vehicle of 4 mg/ml Matrigel (Becton Dickinson and Co., New York, NY, USA). One week later, mice bearing tumours around 50 mm^3 in volume were randomly divided into groups for subsequent experiments.
For optical imaging, mice were anesthetized with isoflurane. Cy5-labelled peptides were injected intravenously at a dose of 100 μl, 50 μM. At each time point, mice were again anesthetized and imaged using IVIS Spectrum Pre-clinical In Vivo Imaging System (640 nm/680 nm). Fluorescence in manually set regions of interest was quantified by Living Image. The contrast ratio was calculated by dividing the tumour fluorescence by the chest and abdomen fluorescence.

mouse red blood cells = assay: Haemolytic activity; type: cell-based
Procedure: Fresh mouse red blood cells were collected and centrifuged at 800 rpm for 5 min. The erythrocytes were washed and re suspended in 0.9% NaCl to 10^8/ml. A serial dilution of peptides were added and incubate at 310 K. After 1 h incubation, erythrocytes were centrifuged and the release of hemoglobin was monitored by measuring the absorbance of supernatant at 570 nm by a microplate reader (PerkinElmer).

HEK293T = assay: Cell viability, non-tumourigenic HEK293T; type: cell-based; settings: 24 h treatment
nude mice = assay: Acute toxicity in mice; type: in vivo; settings: 40 mg/kg (200 μl, 4 mg/ml) intravenous, n=3 per group
Procedure: (§1) In acute toxicity studies, 12 mice were divided into four groups (n=3 for each group) and administered via intravenous injection with peptide (e8-Uk14, e7-Ur11) at the dose of 20 or 40 mg/kg. In chronic renal toxicity studies, mice were administered via intravenous injection with peptide (e8-Uk14, e7-Ur11) at the dose of 20 mg/kg every other day over a periods of 2 weeks.

MDA-MB-231 [2] = assay: Cell viability with or without caspase inhibitor Z-VAD-FMK; type: cell-based, human
HeLa = settings: read-out: IC50 (μM), HeLa; MTT assay, 24 h treatment, 5% FBS medium, 310 K; mean (standard deviation)
Procedure: (§2) 100 μl of 4×10^4/ml cell suspension (MDA-MB-231, MCF-7, HeLa, SK-OV-3) was placed in each well of the 96-well culture plate and allowed to grow in dulbecco's modified eagle medium or Leibovitz medium (L-15) supplemented with 10% fetal bovine serum overnight. The cells were incubated with serial dilution of compounds at 310 K in 5% fetal bovine serum containing media for 24 h supplied with 5% CO2. At the end of the compounds exposure, 20 μl of 3-(4,5-dimethyl-2-thiazolyl)-2,5-diphenyl-2-H-tetrazolium bromide reagent was added and incubated at 310 K for 4 h. The absorbance of formazan product was measured at 490 nm by a microplate reader (PerkinElmer, Waltham, MA, USA). Cells without peptide were treated as control. *P<0.05, **P<0.01, ***P<0.001 compared with vehicle-treated cells. In Z-VAD-FMK assays, *P<0.05, **P<0.01, ***P<0.001 compared with cells without treatment of Z-VAD-FMK.

SK-OV-3 = settings: read-out: IC50 (μM), SK-OV-3; MTT assay, 24 h treatment, 5% FBS medium, 310 K; mean (standard deviation)
Procedure: as §2

MCF-7 = settings: read-out: IC50 (μM), MCF-7; MTT assay, 24 h treatment, 5% FBS medium, 310 K; mean (standard deviation)
Procedure: as §2

kidney = assay: Chronic renal toxicity, kidney haematoxylin-eosin staining; type: in vivo, mice; settings: 20 mg/kg i.v. every other day over 2 weeks
Procedure: as §1

[3] = organs excised 6 h after injection
[4] = mouse red blood cells 10^8/ml in 0.9% NaCl, 1 h, 310 K, absorbance 570 nm

CC(=O)N[C@H](Cc1c[nH]c2ccccc12)C(=O)NCCC(=O)N[C@H](CCCCN)C(=O)N[C@H](CC(C)C)C(=O)N[C@H](C)C(=O)N[C@H](CCCCN)C(=O)N[C@H](CC(C)C)C(=O)N[C@H](C)C(=O)N[C@H](CCCCN)C(=O)N[C@H](CCCCN)C(=O)N[C@H](CC(C)C)C(=O)N[C@H](C)C(=O)N[C@H](CCCCN)C(=O)N[C@H](CC(C)C)C(=O)N[C@H](C)C(=O)N[C@H](CCCCN)C(N)=O [ak14]
cytotoxic activity towards MDA-MB-231 cells (in words) (MDA-MB-231 [1]; MTT assay, 24 h treatment): only moderate efficiency
IC50 (MDA-MB-231 [1]; MTT assay, 24 h treatment): > 30 µM

CC(=O)N[C@H](Cc1c[nH]c2ccccc12)C(=O)NCCC(=O)N[C@H](CCC(=O)O)C(=O)N[C@H](CCC(=O)O)C(=O)N[C@H](CCC(=O)O)C(=O)N[C@H](CCC(=O)O)C(=O)N[C@H](CCC(=O)O)C(=O)N[C@H](CCC(=O)O)C(=O)N[C@H](CCC(=O)O)C(=O)N[C@H](CCC(=O)O)C(=O)NCCCCCC(=O)N1CCC[C@H]1C(=O)N[C@@H](CC(C)C)C(=O)NCC(=O)N[C@@H](CC(C)C)C(=O)N[C@@H](C)C(=O)NCC(=O)N[C@H](CCCCN)C(=O)N[C@H](CC(C)C)C(=O)NC(C)(C)C(=O)N[C@H](CCCCN)C(=O)N[C@H](CC(C)C)C(=O)NC(C)(C)C(=O)N[C@H](CCCCN)C(=O)N[C@H](CCCCN)C(=O)N[C@H](CC(C)C)C(=O)NC(C)(C)C(=O)N[C@H](CCCCN)C(=O)N[C@H](CC(C)C)C(=O)NC(C)(C)C(=O)N[C@H](CCCCN)C(N)=O [e8-Uk14] (Ac-[dW][βAla][dE][dE][dE][dE][dE][dE][dE][dE][Ahx]PLGLAG[dK][dL][Aib][dK][dL][Aib][dK][dK][dL][Aib][dK][dL][Aib][dK]-NH2)
tumour accumulation (in vivo fluorescence imaging) (MDA-MB-231 tumour): significantly higher accumulation in tumours compared to unmodified peptides
accumulation in kidney (MDA-MB-231 tumour; [3]): lower accumulation in the kidney
accumulation in liver (MDA-MB-231 tumour; [3]): higher accumulation in the liver
uptake in excised tumour (MDA-MB-231 tumour; [3]): higher compared to UK14 and Ur11
haemolytic activity (mouse red blood cells; [4]): diminished membrane disruption and haemolysis
cytotoxicity against non-tumourigenic HEK293T (HEK293T): no obvious cytotoxicity
acute toxicity (survival) (nude mice): no acute toxicity

CC(=O)N[C@H](Cc1c[nH]c2ccccc12)C(=O)NCCC(=O)N[C@H](CC(C)C)C(=O)NC(C)(C)C(=O)N[C@H](CCCNC(=N)N)C(=O)N[C@H](CCCNC(=N)N)C(=O)N[C@H](CC(C)C)C(=O)NC(C)(C)C(=O)N[C@H](CCCNC(=N)N)C(=O)N[C@H](CC(C)C)C(=O)NC(C)(C)C(=O)N[C@H](CCCNC(=N)N)C(N)=O [Ur10] (Ac-[dW][βAla][dL][Aib][dR][dR][dL][Aib][dR][dL][Aib][dR]-NH2)
cytotoxic activity towards MDA-MB-231 cells (in words) (MDA-MB-231 [1]; MTT assay, 24 h treatment): greatly diminished activity

CC(=O)N[C@H](Cc1c[nH]c2ccccc12)C(=O)NCCC(=O)N[C@H](CCCCN)C(=O)N[C@H](CC(C)C)C(=O)NC(C)(C)C(=O)N[C@H](CCCCN)C(=O)N[C@H](CC(C)C)C(=O)NC(C)(C)C(=O)N[C@H](CCCCN)C(=O)N[C@H](CCCCN)C(=O)N[C@H](CC(C)C)C(=O)NC(C)(C)C(=O)N[C@H](CCCCN)C(=O)N[C@H](CC(C)C)C(=O)NC(C)(C)C(=O)N[C@H](CCCCN)C(N)=O [Uk14] (Ac-[dW][βAla][dK][dL][Aib][dK][dL][Aib][dK][dK][dL][Aib][dK][dL][Aib][dK]-NH2)
effect of caspase inhibitor Z-VAD-FMK on cytotoxic effect (MDA-MB-231 [2]): did not block
IC50 (HeLa): 4.8 µM
IC50 (SK-OV-3): 5.1 µM
IC50 (MCF-7): 4.7 µM
haemolytic activity (mouse red blood cells): strong haemolytic activity
IC50 (MDA-MB-231 [1]; MTT assay, 24 h treatment): 4.5 µM

CC(=O)N[C@H](Cc1c[nH]c2ccccc12)C(=O)NCCC(=O)N[C@H](CCCNC(=N)N)C(=O)N[C@H](CC(C)C)C(=O)NC(C)(C)C(=O)N[C@H](CCCNC(=N)N)C(=O)N[C@H](CCCNC(=N)N)C(=O)N[C@H](CC(C)C)C(=O)NC(C)(C)C(=O)N[C@H](CCCNC(=N)N)C(=O)N[C@H](CC(C)C)C(=O)NC(C)(C)C(=O)N[C@H](CCCNC(=N)N)C(N)=O [Ur11] (Ac-[dW][βAla][dR][dL][Aib][dR][dR][dL][Aib][dR][dL][Aib][dR]-NH2)
effect of caspase inhibitor Z-VAD-FMK on cytotoxic effect (MDA-MB-231 [2]): did not block
IC50 (HeLa): 5.9 µM
IC50 (SK-OV-3): 5.1 µM
IC50 (MCF-7): 5.6 µM
haemolytic activity (mouse red blood cells): strong haemolytic activity
cytotoxic activity towards MDA-MB-231 cells (in words) (MDA-MB-231 [1]): no change in activity
IC50 (MDA-MB-231 [1]; MTT assay, 24 h treatment): 8.9 µM

CC(=O)N[C@H](Cc1c[nH]c2ccccc12)C(=O)NCCC(=O)N[C@H](CCCNC(=N)N)C(=O)N[C@H](CC(C)C)C(=O)NC(C)(C)C(=O)N[C@H](CCCNC(=N)N)C(=O)N[C@H](CC(C)C)C(=O)NC(C)(C)C(=O)N[C@H](CCCNC(=N)N)C(=O)N[C@H](CCCNC(=N)N)C(=O)N[C@H](CC(C)C)C(=O)NC(C)(C)C(=O)N[C@H](CCCNC(=N)N)C(=O)N[C@H](CC(C)C)C(=O)NC(C)(C)C(=O)N[C@H](CCCNC(=N)N)C(N)=O [Ur14] (Ac-[dW][βAla][dR][dL][Aib][dR][dL][Aib][dR][dR][dL][Aib][dR][dL][Aib][dR]-NH2)
cytotoxic activity towards MDA-MB-231 cells (in words) (MDA-MB-231 [1]; MTT assay, 24 h treatment): no significant improvements

CC(=O)N[C@H](Cc1c[nH]c2ccccc12)C(=O)NCCC(=O)N[C@H](CC(C)C)C(=O)N[C@H](CC(C)C)C(=O)N[C@H](CC(C)C)C(=O)N[C@H](CC(C)C)C(=O)NC(C)(C)C(=O)NC(C)(C)C(=O)NC(C)(C)C(=O)NC(C)(C)C(=O)N[C@H](CCCCN)C(=O)N[C@H](CCCCN)C(=O)N[C@H](CCCCN)C(=O)N[C@H](CCCCN)C(=O)N[C@H](CCCCN)C(=O)N[C@H](CCCCN)C(N)=O [lUk] (Ac-[dW][βAla][dL][dL][dL][dL][Aib][Aib][Aib][Aib][dK][dK][dK][dK][dK][dK]-NH2)
cytotoxic activity towards MDA-MB-231 cells (in words) (MDA-MB-231 [1]; MTT assay, 24 h treatment): decreased efficiency

CC(=O)N[C@H](Cc1c[nH]c2ccccc12)C(=O)NCCC(=O)N[C@H](CCCCN)C(=O)N[C@H](CC(C)C)C(=O)NC(C)(C)C(=O)N[C@H](CCCCN)C(=O)N[C@H](CCCCN)C(=O)N[C@H](CC(C)C)C(=O)NC(C)(C)C(=O)N[C@H](CCCCN)C(=O)N[C@H](CC(C)C)C(=O)NC(C)(C)C(=O)N[C@H](CCCCN)C(N)=O [Uk11] (Ac-[dW][βAla][dK][dL][Aib][dK][dK][dL][Aib][dK][dL][Aib][dK]-NH2)
cytotoxic activity towards MDA-MB-231 cells (in words) (MDA-MB-231 [1]; MTT assay, 24 h treatment): decreased efficiency

CC(=O)N[C@H](Cc1c[nH]c2ccccc12)C(=O)NCCC(=O)N[C@H](CCC(=O)O)C(=O)N[C@H](CCC(=O)O)C(=O)N[C@H](CCC(=O)O)C(=O)N[C@H](CCC(=O)O)C(=O)N[C@H](CCC(=O)O)C(=O)N[C@H](CCC(=O)O)C(=O)N[C@H](CCC(=O)O)C(=O)NCCCCCC(=O)N1CCC[C@H]1C(=O)N[C@@H](CC(C)C)C(=O)NCC(=O)N[C@@H](CC(C)C)C(=O)N[C@@H](C)C(=O)NCC(=O)N[C@H](CCCNC(=N)N)C(=O)N[C@H](CC(C)C)C(=O)NC(C)(C)C(=O)N[C@H](CCCNC(=N)N)C(=O)N[C@H](CCCNC(=N)N)C(=O)N[C@H](CC(C)C)C(=O)NC(C)(C)C(=O)N[C@H](CCCNC(=N)N)C(=O)N[C@H](CC(C)C)C(=O)NC(C)(C)C(=O)N[C@H](CCCNC(=N)N)C(N)=O [e7-Ur11]
tumour accumulation (in vivo fluorescence imaging) (MDA-MB-231 tumour): significantly higher accumulation in tumours compared to unmodified peptides
uptake in excised tumour (MDA-MB-231 tumour; [3]): higher compared to UK14 and Ur11
haemolytic activity (mouse red blood cells; [4]): diminished membrane disruption and haemolysis
kidney histology (haematoxylin-eosin staining) (kidney): bleeding was observed at the junction of renal
cytotoxicity against non-tumourigenic HEK293T (HEK293T): no obvious cytotoxicity
acute toxicity (survival) (nude mice): caused death (one in three survived)
